# Reference: patent US20220409629A1, “BENZODIAZEPINE DERIVATIVES FOR TREATING A RESPIRATORY SYNCYTIAL VIRUS (RSV) INFECTION” (priority 2019, published 2022)
# Assays:
# [1] = system: Hep-G2 cells; test: Cell cytotoxicity CC50; assay type: cell-based; details: mean of at least two experiments
# [2] = system: RSV A2; test: RSV plaque reduction assay; assay type: cell-based, respiratory syncytial virus (RSV); details: Hep-G2 cells, RSV A2, mean of at least two experiments
# Outline: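 RSV A2 (100 PFU/well) premixed with eight serial compound dilutions, added to confluent Hep-G2 monolayers for 2 h at 37° C, then held 2 days under CMC overlay containing compound (DMEM, 2% FBS). Plaques immunostained (HRP/TrueBlue) and counted; EC50 is 50% reduction versus virus control from 4-parameter fit, mean of ≥2 experiments.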
# [3] = Liver microsomal stability, rat; assay type: in vitro ADME; details: rat liver microsomes, 0.5 mg/mL protein, 1 μM compound, NADPH, >80% remaining at 45 min denoted >140; for half-life: pH 7.4, read-out: Liver Microsomal Stability: t1/2 (min), rat
# Outline: (§1)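 Pooled liver microsomes (0.5 mg/mL protein) in 0.1 M phosphate pH 7.4 with 1 μM compound (0.25% DMSO), started with 1 mM NADPH at 37° C; sampled 0-45 min, minus-NADPH control 45 min. LC-MS/MS depletion slope gave t1/2 and CLint.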
# [4] = Liver microsomal stability, human; assay type: in vitro ADME; details: human liver microsomes, 0.5 mg/mL protein, 1 μM compound, NADPH, >80% remaining at 45 min denoted >140; for half-life: pH 7.4, read-out: Liver Microsomal Stability: t1/2 (min), human
# Outline: as §1
# [5] = Liver microsomal stability, dog; assay type: in vitro ADME; details: dog liver microsomes, 0.5 mg/mL protein, 1 μM compound, NADPH, >80% remaining at 45 min denoted >140; for half-life: pH 7.4, read-out: Liver Microsomal Stability: t1/2 (min), dog
# Outline: as §1
# [6] = Cell cytotoxicity CC50; assay type: cell-based; details: human; mean of at least two experiments
# [7] = Liver hepatocyte stability, dog; assay type: in vitro ADME; details: dog hepatocytes, 3 μM compound, 60 min, >80% remaining at 60 min denoted >186, read-out: Liver Hepatocyte Stability: t1/2 (min)
# Method: (§2) Cryopreserved pooled hepatocytes were purchased from a reputable commercial supplier and stored in liquid nitrogen prior to use. Williams E media supplemented with 2 mM L-glutamine and 25 mM HEPES and test compound (final substrate concentration 3 μM; final DMSO concentration 0.25%) are pre-incubated at 37° C. prior to the addition of a suspension of cryopreserved hepatocytes (final cell density 0.5×10^6 viable cells/mL in Williams E media supplemented with 2 mM L-glutamine and 25 mM HEPES) to initiate the reaction. The final incubation volume is 500 μL. Two control compounds were included with each species, alongside appropriate vehicle control. The reactions are stopped by transferring 50 μL of incubate to 100 μL acetonitrile containing internal standard at the appropriate time points. Samples were removed at 6 time points (0, 5, 15, 30, 45 and 60 min) over the course of a 60 min experiment. The termination plates are centrifuged at 2500 rpm at 4° C. for 30 min to precipitate the protein. Following protein precipitation, the sample supernatants were combined in cassettes of up to 4 compounds and analysed using generic LC-MS/MS conditions. From a plot of ln peak area ratio (compound peak area/internal standard peak area) against time, the gradient of the line is determined. Subsequently, half-life (t1/2) and intrinsic clearance (CLint) were calculated.
# [8] = Liver hepatocyte stability, human; assay type: in vitro ADME; details: human hepatocytes, 3 μM compound, 60 min, >80% remaining at 60 min denoted >186, read-out: Liver Hepatocyte Stability: t1/2 (min)
# Method: as §2
# [9] = Rat pharmacokinetics in vivo; details: male Sprague Dawley rats; for C 8 h / Cmax: doses 1 mg/kg (IV) and 10 mg/kg (PO); for Vd / clearance / bioavailability / half-life / AUC(0-t) / Cmax: rat, in vivo; for AUC(0-t): read-out: PO AUClast
# Method: The pharmacokinetics of compounds were studied in vivo in rats at doses of 1 mg/kg (IV) and 10 mg/kg (PO).
# Male rats (Sprague Dawley) surgically prepared with a jugular vein cannula were treated with experimental compounds via intravenous administration (IV; n=3; 1 mg/kg) or oral administration (PO; n=3; 10 mg/kg). Compounds were formulated as a solution in 40:60 dimethylacetamide:saline (IV administration), a suspension in 1% methyl cellulose (viscosity: 15 cP), 0.1% Tween80 in water (PO administration: Example 3), a solution in 10% DMSO/10% Cremaphor/80% water (PO administration: Examples 4, 11, 21, 23, 25, 26, 32) or a solution in 10% DMSO/20% Cremaphor/70% water (PO administration: Examples 19, 20, 22, 24, 30). […] Serial blood samples were collected via the cannula at 0.02, 0.08, 0.25, 0.5, 1, 2, 4, 6, 8 and 24 h post IV dosing of compound, and at 0.08, 0.25, 0.5, 1, 2, 4, 6, 8 and 24 h post oral dosing of compound, and plasma was prepared by centrifugation and stored immediately at −80° C. Samples were subsequently thawed, prepared for analysis by protein precipitation with acetonitrile, and analysed by tandem LCMS using electrospray ionisation using a matrix-matched calibration curve. PK parameters were calculated from the resulting data.
# [10] = Liver hepatocyte stability, rat; assay type: in vitro ADME; details: rat hepatocytes, 3 μM compound, 60 min, >80% remaining at 60 min denoted >186, read-out: Liver Hepatocyte Stability: t1/2 (min)
# Method: as §2
# [11] = system: RSV; details: Antimicrobial Agents and Chemotherapy, September 2007, 3346-3353; cited from earlier work
# [12] = human respiratory syncytial virus, HepG2
# [13] = IV 1 mg/kg, read-out: IV t½ (converted)
# [14] = PO 10 mg/kg, read-out: PO t½ (converted)
compound,measurement,setting,value
"3-[6-(Cyclopropylamino)-2-fluoropyridin-3-yl]-1-(oxetan-3-yl)-N-[(3S)-2-oxo-5-phenyl-1,3-dihydro-1,4-benzodiazepin-3-yl]pyrazole-4-carboxamide [Example 37]",CC50,[1],> 25 µM
same,EC50,[2],0.078 µM
"3-[6-(Cyclopropylamino)-2-fluoropyridin-3-yl]-N-[(3S)-9-fluoro-2-oxo-5-phenyl-1,3-dihydro-1,4-benzodiazepin-3-yl]-1-(oxetan-3-yl)pyrazole-4-carboxamide [Example 36]",CC50,[1],> 25 µM
same,Liver Microsomal Stability: t1/2 (min); rat,[3],93.2 min
same,EC50,[2],0.045 µM
same,Liver Microsomal Stability: t1/2 (min); human,[4],68.5 min
same,Liver Microsomal Stability: t1/2 (min); dog,[5],191 min
"CCn1cc(C(=O)N[C@H]2N=C(c3ccccc3)c3cccc(F)c3NC2=O)c(-c2ccc(NC3CC3)nc2F)n1 [Example 26, 3-[6-(Cyclopropylamino)-2-fluoropyridin-3-yl]-1-ethyl-N-[(3S)-9-fluoro-2-oxo-5-phenyl-1,3-dihydro-1,4-benzodiazepin-3-yl]pyrazole-4-carboxamide]",CC50,[6],> 25 µM
same,half-life,[7],160 min
same,half-life,[3],70.2 min
same,EC50,[2]; [12],0.036 µM
same,half-life,[8],> 186 min
same,half-life,[4],84.9 min
same,C 8 h,[9],919 ng/mL
same,Vd,[9]; IV 1 mg/kg,1.1 L/kg
same,clearance,[9]; IV 1 mg/kg,8.2 mL/min/kg
same,bioavailability,"[9]; IV 1 mg/kg, PO 10 mg/kg",95.6%
same,half-life,[9]; [13],2.6 h
same,AUC(0-t),[9]; PO 10 mg/kg,19400 ng·h/mL
same,half-life,[9]; [14],2.6 h
same,Cmax,[9],2120 ng/mL
same,half-life,[5],30.8 min
same,half-life,[10],> 186 min
"CC(C)(C)n1cc(C(=O)N[C@H]2N=C(c3ccccc3)c3cccc(F)c3NC2=O)c(-c2ccc(NC3CC3)nc2F)n1 [Example 30, 1-tert-Butyl-3-[6-(cyclopropylamino)-2-fluoropyridin-3-yl]-N-[(3S)-9-fluoro-2-oxo-5-phenyl-1,3-dihydro-1,4-benzodiazepin-3-yl]pyrazole-4-carboxamide]",CC50,[6],> 25 µM
same,half-life,[7],> 186 min
same,half-life,[3],53.1 min
same,EC50,[2]; [12],0.032 µM
same,half-life,[8],71.3 min
same,half-life,[4],253 min
same,C 8 h,[9],444 ng/mL
same,Vd,[9]; IV 1 mg/kg,1.4 L/kg
same,clearance,[9]; IV 1 mg/kg,11.2 mL/min/kg
same,bioavailability,"[9]; IV 1 mg/kg, PO 10 mg/kg",57%
same,half-life,[9]; [13],1.8 h
same,AUC(0-t),[9]; PO 10 mg/kg,8540 ng·h/mL
same,half-life,[9]; [14],3 h
same,Cmax,[9],918 ng/mL
same,half-life,[5],63.7 min
same,half-life,[10],98.5 min
"O=C(N[C@H]1N=C(c2ccccc2)c2cccc(F)c2NC1=O)c1cn(C2CCOCC2)nc1-c1ccc(NC2CC2)nc1F [Example 32, 3-[6-(Cyclopropylamino)-2-fluoropyridin-3-yl]-N-[(3S)-9-fluoro-2-oxo-5-phenyl-2,3-dihydro-1H-1,4-benzodiazepin-3-yl]-1-(oxan-4-yl)-1H-pyrazole-4-carboxamide]",CC50,[6],> 25 µM
same,half-life,[7],> 186 min
same,half-life,[3],127 min
same,EC50,[2]; [12],0.058 µM
same,half-life,[8],> 186 min
same,half-life,[4],298 min
same,C 8 h,[9],84 ng/mL
same,Vd,[9]; IV 1 mg/kg,1.1 L/kg
same,clearance,[9]; IV 1 mg/kg,17.7 mL/min/kg
same,bioavailability,"[9]; IV 1 mg/kg, PO 10 mg/kg",19.3%
same,half-life,[9]; [13],1.2 h
same,AUC(0-t),[9]; PO 10 mg/kg,1940 ng·h/mL
same,half-life,[9]; [14],5.2 h
same,Cmax,[9],452 ng/mL
same,half-life,[5],331 min
same,half-life,[10],376 min
O=C(Nc1ccccc1F)N[C@H]1N=C(c2ccccc2)c2ccccc2NC1=O [RSV604],anti-RSV activity,[11],sub-micromolar
